Calls of active or inactive are those of the source. No cut-off for these calls is given here.
How the values were obtained:
Conditions in all cases: dose 6.7 µg/ml
[1] = target: T1, Receptor-type tyrosine-protein phosphatase C (Homo sapiens) (UniProt P08575); assay: Inhibition of human recombinant CD45 expressed in Escherichia coli assessed as inhibition of phosphatase activity by measuring p-nitrophenyl phosphate at 6.7 microg/ml measured after 60 mins
T1 sequence (whole entry): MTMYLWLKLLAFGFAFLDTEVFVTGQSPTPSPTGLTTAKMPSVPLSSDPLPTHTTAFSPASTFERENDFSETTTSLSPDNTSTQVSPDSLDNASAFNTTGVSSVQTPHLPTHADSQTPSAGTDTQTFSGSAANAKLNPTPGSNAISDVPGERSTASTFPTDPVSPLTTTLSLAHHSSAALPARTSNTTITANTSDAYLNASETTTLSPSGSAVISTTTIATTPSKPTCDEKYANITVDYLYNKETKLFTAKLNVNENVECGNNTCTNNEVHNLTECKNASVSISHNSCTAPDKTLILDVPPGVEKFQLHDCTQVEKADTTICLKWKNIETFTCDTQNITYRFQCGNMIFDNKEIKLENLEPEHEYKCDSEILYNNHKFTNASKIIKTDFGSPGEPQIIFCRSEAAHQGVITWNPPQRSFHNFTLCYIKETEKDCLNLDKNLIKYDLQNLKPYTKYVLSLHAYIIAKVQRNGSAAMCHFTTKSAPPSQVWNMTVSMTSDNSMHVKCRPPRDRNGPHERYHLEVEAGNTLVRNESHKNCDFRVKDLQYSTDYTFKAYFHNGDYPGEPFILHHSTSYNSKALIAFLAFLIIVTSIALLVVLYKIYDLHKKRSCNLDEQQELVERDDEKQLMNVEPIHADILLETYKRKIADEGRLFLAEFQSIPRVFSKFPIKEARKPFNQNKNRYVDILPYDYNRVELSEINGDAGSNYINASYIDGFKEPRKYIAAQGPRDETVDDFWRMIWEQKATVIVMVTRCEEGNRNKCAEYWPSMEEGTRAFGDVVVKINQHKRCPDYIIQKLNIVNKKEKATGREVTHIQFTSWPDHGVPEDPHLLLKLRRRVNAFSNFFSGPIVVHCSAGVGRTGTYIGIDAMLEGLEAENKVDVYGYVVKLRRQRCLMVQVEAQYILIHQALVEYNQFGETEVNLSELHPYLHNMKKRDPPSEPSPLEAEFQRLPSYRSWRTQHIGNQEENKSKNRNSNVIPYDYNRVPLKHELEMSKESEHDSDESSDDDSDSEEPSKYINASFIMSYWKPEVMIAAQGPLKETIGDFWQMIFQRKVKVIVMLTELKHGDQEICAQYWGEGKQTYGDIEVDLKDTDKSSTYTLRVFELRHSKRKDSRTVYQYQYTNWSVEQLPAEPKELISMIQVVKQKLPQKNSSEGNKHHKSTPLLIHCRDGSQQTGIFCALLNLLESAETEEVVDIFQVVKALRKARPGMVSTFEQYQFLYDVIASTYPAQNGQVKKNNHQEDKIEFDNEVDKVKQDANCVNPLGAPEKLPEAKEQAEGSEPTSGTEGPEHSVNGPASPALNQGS

[2] = target: T2, M-phase inducer phosphatase 2 (Homo sapiens) (UniProt P30305); assay: Inhibition of human recombinant CDC25B expressed in Escherichia coli assessed as inhibition of phosphatase activity by measuring p-nitrophenyl phosphate at 6.7 microg/ml measured after 60 mins
T2 sequence (whole entry): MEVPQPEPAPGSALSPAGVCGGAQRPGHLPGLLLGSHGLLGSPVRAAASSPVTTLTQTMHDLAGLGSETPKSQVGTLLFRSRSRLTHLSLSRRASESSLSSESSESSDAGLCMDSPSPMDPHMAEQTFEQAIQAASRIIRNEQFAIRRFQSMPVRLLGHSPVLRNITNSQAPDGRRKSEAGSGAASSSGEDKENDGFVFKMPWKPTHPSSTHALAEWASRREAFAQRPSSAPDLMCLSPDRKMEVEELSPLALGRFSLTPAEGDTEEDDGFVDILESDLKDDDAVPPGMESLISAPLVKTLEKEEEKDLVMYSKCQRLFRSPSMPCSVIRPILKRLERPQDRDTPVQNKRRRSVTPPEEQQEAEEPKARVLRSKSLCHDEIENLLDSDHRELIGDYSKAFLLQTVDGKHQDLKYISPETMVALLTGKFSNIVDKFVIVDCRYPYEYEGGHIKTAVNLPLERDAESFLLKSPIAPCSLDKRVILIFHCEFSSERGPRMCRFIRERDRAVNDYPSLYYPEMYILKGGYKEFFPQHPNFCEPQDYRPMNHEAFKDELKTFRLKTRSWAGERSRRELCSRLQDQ

[3] = target: T3, Tyrosine-protein phosphatase non-receptor type 9 (Homo sapiens) (UniProt P43378); assay: Inhibition of human recombinant MEG2 expressed in Escherichia coli assessed as inhibition of phosphatase activity by measuring p-nitrophenyl phosphate at 6.7 microg/ml measured after 60 mins
T3 sequence (whole entry): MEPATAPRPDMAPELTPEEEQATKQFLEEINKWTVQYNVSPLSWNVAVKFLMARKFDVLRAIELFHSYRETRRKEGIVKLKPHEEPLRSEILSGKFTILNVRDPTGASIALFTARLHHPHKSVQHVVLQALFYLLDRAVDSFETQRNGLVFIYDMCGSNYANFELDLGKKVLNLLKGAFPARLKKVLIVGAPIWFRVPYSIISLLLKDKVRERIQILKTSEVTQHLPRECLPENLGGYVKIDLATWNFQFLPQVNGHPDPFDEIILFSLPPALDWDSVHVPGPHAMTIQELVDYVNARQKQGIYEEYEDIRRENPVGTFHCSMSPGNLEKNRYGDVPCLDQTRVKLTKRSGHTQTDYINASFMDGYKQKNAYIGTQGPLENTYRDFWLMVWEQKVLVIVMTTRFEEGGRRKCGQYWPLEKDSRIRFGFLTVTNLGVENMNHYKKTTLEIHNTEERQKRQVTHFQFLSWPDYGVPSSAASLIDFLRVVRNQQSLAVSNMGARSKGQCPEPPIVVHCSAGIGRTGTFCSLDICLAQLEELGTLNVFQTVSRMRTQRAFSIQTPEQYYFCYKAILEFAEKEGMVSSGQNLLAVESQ

| SMILES | inhibition [1] | inhibition [2] | inhibition [3] |
| --- | --- | --- | --- |
| COC(=O)CC1=C(C)[C@@H]2C[C@@]3(C)C(=O)O[C@H]4O[C@@H](C)[C@@]5(O)O[C@@H]([C@@H]6O[C@]16C(C)(C)O)[C@]2(C)[C@@]5(C(=O)OC)[C@]43O | < 60% | < 60% | < 60% |
| COC(=O)[C@@]12[C@@]3(C)[C@@H]4C=C5C(=CC(=O)OC5(C)C)[C@@](C)(O)[C@@H]3C[C@@]3(C)C(=O)O[C@@H](O[C@@H](C)[C@@]1(O)O4)[C@@]23O | < 60% | Active | < 60% |
| COC(=O)[C@]12C(=O)[C@H](C)O[C@@H]3OC(=O)[C@](C)(C[C@H]4C(C)=C5CC(=O)OC(C)(C)C5=CC[C@@]41C)[C@@H]32 [BERKELEYACETAL A] | < 60% | < 60% | < 60% |
| COC(=O)[C@]12[C@@H]3[C@H]4OC(=O)[C@]3(C)CC3=C(C)C5=C(C[C@H](O[C@]1(O)[C@H](C)O4)[C@@]32C)C(C)(C)OC(=O)C5 | < 60% | < 60% | < 60% |
| CC1=C2CC(=O)OC(C)(C)C2=CC[C@@]2(C)[C@H]1C[C@@](C)(C(=O)O)[C@]13COC(=O)[C@@]12C(=O)[C@H](C)O3 | < 60% | < 60% | < 60% |
| COC(=O)[C@]12[C@@H]3[C@H]4OC(=O)[C@]3(C)C[C@H]3C(C)=C5CC(=O)OC(C)(C)[C@@]56O[C@H]6[C@H](O[C@]1(O)[C@H](C)O4)[C@@]32C | < 60% | < 60% | < 60% |
| CC1=C2CC(=O)OC(C)(C)[C@]23O[C@@H]3[C@@H]2O[C@@]3(O)[C@@H](C)O[C@H]4OC(=O)[C@]5(C)C[C@H]1[C@]2(C)[C@@]31C(=O)O[C@@]415 | < 60% | < 60% | < 60% |

Continued, values first:

| inhibition [1] | inhibition [2] | inhibition [3] | SMILES |
| --- | --- | --- | --- |
| < 60% | < 60% | < 60% | COC(=O)[C@]12C3=C(C)O[C@@H]4OC(=O)[C@](C)(C[C@H]5C(C)=C6CC(=O)O[C@@]6(C(C)(C)O)[C@@H](C[C@@]51C)O3)[C@@H]42 |
| < 60% | < 60% | < 60% | COC(=O)[C@]12C(=O)[C@@](C)(O)C(=O)[C@](C)(C[C@H]3C(C)=C4CC(=O)OC(C)(C)C4=CC[C@@]31C)[C@]21CO1 |
| < 60% | < 60% | < 60% | COC(=O)[C@]12[C@@H]3[C@@H](O)O[C@@H](C)[C@@]14OC(=O)[C@]3(C)C[C@H]1C(C)=C3CC(=O)OC(C)(C)[C@@]35O[C@H]5[C@H](O4)[C@@]12C |
| < 60% | < 60% | < 60% | COC(=O)CC1=C(C)[C@@H]2C[C@@]3(C)C(=O)O[C@H]4O[C@@H](C)[C@@]5(O)O[C@@H]([C@@H]6O[C@]16C(C)(C)O)[C@]2(C)[C@@]5(C(=O)OC)[C@H]43 |
| < 60% | < 60% | < 60% | COC(=O)[C@]12C3=C(C)O[C@@H]4OC(=O)[C@](C)(C[C@H]5C(C)=C6CC(=O)O[C@@]6(C(C)(C)O)[C@H](O3)[C@H](O)[C@@]51C)[C@@H]42 |
| < 60% | < 60% | < 60% | COC(=O)CC1=C(C)[C@H]2C[C@]3(C)C(=O)O[C@@H]4O[C@H](C)[C@]5(O)O[C@@H]([C@H]6O[C@@]16C(C)(C)O)[C@@]2(C)[C@@]51C(=O)O[C@@]413 |

Source: ChEMBL document CHEMBL4828768, “Talaromynoids A-I, Highly Oxygenated Meroterpenoids from the Marine-Derived Fungus Talaromyces purpureogenus SCSIO 41517 and Their Lipid Accumulation Inhibitory Activities” (J Nat Prod, 2021)
